5 compounds from US7713994B2 (Wyeth LLC, priority 2005, dated 2010) can be followed below.

One series addresses T1, cyclin D1/cdk 4 enzyme (Homo sapiens, UniProt P11802).
T1 construct: made in house; host or cells: Sf9 insect cells, recombinant baculovirus
The series can be described thus: CDK4 ELISA kinase assay (phospho-Rb ser 795 detection). Format: biochemical. The note with it: In Vitro Enzyme Assay, cyclin D1/cdk 4, read-out: CDK4 IC50. In outline: (§1)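 GST-Rb C-terminal fragment coated on wells; kinase reaction: 200 μM ATP, 0.5 mg/ml BSA, HEPES pH 7.5, 10 mM MgCl2, baculovirus/Sf9 cyclin-CDK, 30° C, 1 h. Readout anti-phospho-Rb Ser795, HRP, TMB, A450. Test compound 10 ug/ml final.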

Another series has as its target T2, cyclin E/CDK2 enzyme (Homo sapiens, UniProt P24941).
T2 construct: made in house; host or cells: Sf9 insect cells, recombinant baculovirus
The series can be described thus: CDK2 ELISA kinase assay (phospho-Rb ser 795 detection). Format: biochemical. The note with it: In Vitro Enzyme Assay, cyclin E/CDK2, read-out: CDK2 IC50. In outline: as §1
(ELISA stands for enzyme-linked immunosorbent assay.)

Another series deals with T3, cyclin B/CDK1 enzyme (Homo sapiens, UniProt P06493).
T3 construct: purchased New England BioLabs; host or cells: Sf9 insect cells, recombinant baculovirus
In words: CDK1 ELISA kinase assay (phospho-Rb ser 795 detection). Format: biochemical. The note with it: In Vitro Enzyme Assay, cyclin B/CDK1, read-out: CDK1 IC50. In outline: as §1

The subject of a further series is BT474. The series can be described thus: Cytotoxicity assay (SRB), BT474. Format: cell-based. The note with it: Homo sapiens, BT-474, 144 h, BT474 cells, 6 days, SRB; read-out: In Vitro Cellular Activity IC50 BT474. The procedure, abridged: (§2)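 Growth inhibition, SRB method: 3-day continuous compound exposure for HCT-116, LoVo and MCF-7 and 6-day exposure for BT474. Absorbance at 540 nm reflects surviving cell protein relative to controls.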

The next series has as its system HCT-116. In words: Cytotoxicity assay (SRB), HCT-116. Format: cell-based. The note with it: Homo sapiens, HCT-116, 72 h, HCT116 cells, 3 days, SRB; read-out: In Vitro Cellular Activity IC50 HCT116. The procedure, abridged:
as §2

For a further series, the system named is LoVo. The series can be described thus: Cytotoxicity assay (SRB), LoVo. The note with it: Homo sapiens, LoVo, 72 h, LoVo cells, 3 days, SRB; read-out: In Vitro Cellular Activity IC50 LOVO. Format: cell-based. The procedure, abridged:
as §2

Another series deals with MCF-7. The series can be described thus: Cytotoxicity assay (SRB), MCF-7. The note with it: Homo sapiens, MCF7, 72 h, MCF-7 cells, 3 days, SRB; read-out: In Vitro Cellular Activity IC50 MCF-7. Format: cell-based. The procedure, abridged:
as §2

T3 sequence (P06493 whole entry): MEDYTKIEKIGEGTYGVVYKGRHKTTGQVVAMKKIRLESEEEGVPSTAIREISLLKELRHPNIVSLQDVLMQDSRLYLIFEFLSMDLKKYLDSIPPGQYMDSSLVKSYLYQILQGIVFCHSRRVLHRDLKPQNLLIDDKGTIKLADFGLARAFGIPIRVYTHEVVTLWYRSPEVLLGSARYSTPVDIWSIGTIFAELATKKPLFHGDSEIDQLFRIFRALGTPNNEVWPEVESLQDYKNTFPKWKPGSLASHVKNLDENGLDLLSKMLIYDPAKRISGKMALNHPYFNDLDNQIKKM
T3 sequence (P14635 whole entry partner): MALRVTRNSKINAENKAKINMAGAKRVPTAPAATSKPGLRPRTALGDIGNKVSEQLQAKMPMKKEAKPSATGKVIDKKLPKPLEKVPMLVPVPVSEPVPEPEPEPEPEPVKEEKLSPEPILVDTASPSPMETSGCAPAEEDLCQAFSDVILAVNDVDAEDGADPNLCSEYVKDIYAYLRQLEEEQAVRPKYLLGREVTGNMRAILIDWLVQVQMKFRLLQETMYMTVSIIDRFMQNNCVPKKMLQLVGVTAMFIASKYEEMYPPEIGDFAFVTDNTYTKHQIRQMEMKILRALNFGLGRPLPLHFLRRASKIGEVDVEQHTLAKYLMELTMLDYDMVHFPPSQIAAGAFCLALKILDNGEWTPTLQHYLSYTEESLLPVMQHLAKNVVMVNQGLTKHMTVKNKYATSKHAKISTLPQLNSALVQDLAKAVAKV
T1 sequence (P11802 whole entry, species assumed): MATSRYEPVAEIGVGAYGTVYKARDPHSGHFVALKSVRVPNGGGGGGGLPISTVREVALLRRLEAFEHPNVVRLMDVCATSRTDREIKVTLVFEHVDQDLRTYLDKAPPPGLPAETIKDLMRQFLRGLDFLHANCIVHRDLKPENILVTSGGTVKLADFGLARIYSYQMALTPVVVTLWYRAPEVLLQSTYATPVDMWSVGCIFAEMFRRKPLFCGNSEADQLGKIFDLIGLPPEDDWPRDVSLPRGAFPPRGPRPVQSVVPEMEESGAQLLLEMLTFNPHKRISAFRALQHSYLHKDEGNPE
T1 sequence (P24385 whole entry partner, species assumed): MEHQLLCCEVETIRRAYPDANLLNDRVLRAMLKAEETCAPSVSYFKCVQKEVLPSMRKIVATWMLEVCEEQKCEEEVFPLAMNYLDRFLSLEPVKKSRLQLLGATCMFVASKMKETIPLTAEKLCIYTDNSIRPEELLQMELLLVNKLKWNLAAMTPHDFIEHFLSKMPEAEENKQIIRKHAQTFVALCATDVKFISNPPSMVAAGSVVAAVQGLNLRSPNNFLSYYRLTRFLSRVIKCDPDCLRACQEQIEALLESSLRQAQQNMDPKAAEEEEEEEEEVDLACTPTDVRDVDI

With `CN1CCN(c2cnc(N/C=C3\C(=O)NC(=O)c4ccc(-c5ccoc5)cc43)cn2)CC1` [Example 508, (4Z)-6-(3-Furyl)-4-({[5-(4-methylpiperazin-1-yl)pyrazin-2-yl]amino}methylene)isoquinoline-1,3(2H,4H)-dione], the melting point (in general, the temperature, or range, at which the solid turns liquid) is 226 to 227 °C. Also, at cyclin D1/cdk 4 enzyme, the IC50 (usually the concentration at which inhibition is half-maximal) is 1300 nM. Also, on cyclin E/CDK2 enzyme, the IC50 was above 50000 nM. Also, the half-inhibitory concentration (IC50) on cyclin B/CDK1 enzyme came out at 2200 nM. In the series on BT474, the IC50 was found to be 3000 nM. In addition, the IC50 with HCT-116 was found to be 950 nM. For the same compound, in the series with LoVo, the IC50 was 1100 nM. In addition, the half-maximal inhibitory concentration (IC50) with MCF-7 is 1300 nM.
`CN(C)C1CCN(Cc2ccc(N/C=C3\C(=O)NC(=O)c4ccc(-c5ccc(F)cc5)cc43)cc2)C1` (stereo not shown) [Example 512, (4Z)-4-{[(4-{[3-(Dimethylamino)pyrrolidin-1-yl]methyl}phenyl)amino]methylene}-6-(4-fluorophenyl)isoquinoline-1,3(2H,4H)-dione] came in with a melting point of 95 to 96 °C. Further, the 50% inhibitory concentration (IC50) on cyclin D1/cdk 4 enzyme was found to be 200 nM. Besides, the half-maximal inhibitory concentration (IC50) at cyclin E/CDK2 enzyme is above 50000 nM. Besides, the IC50 on cyclin B/CDK1 enzyme was above 50000 nM. In addition, the IC50 with BT474 was 2360 nM. Moreover, the IC50 in the series on HCT-116 turned out to be 1190 nM. Besides, the IC50 in the series with LoVo was 3050 nM. Moreover, the IC50 in the series with MCF-7 is 2700 nM.
The compound `O=C1NC(=O)c2ccc(I)cc2/C1=C/NCc1ccc(-n2cccc2)c(O)c1` [Example 514, (4Z)-4-({[3-Hydroxy-4-(1H-pyrrol-1-yl)benzyl]amino}methylene)-6-iodoisoquinoline-1,3(2H,4H)-dione] gave a melting point of 230 to 231 °C. The IC50 on cyclin D1/cdk 4 enzyme was found to be 60 nM. The 50% inhibitory concentration (IC50) at cyclin E/CDK2 enzyme came out at 15800 nM. The concentration for half-maximal inhibition (IC50) at cyclin B/CDK1 enzyme was above 50000 nM. Also, the IC50 in the series with BT474 is 590 nM. In addition, the 50% inhibitory concentration (IC50) with HCT-116 worked out at 1040 nM. For the same compound, in the series with LoVo, the half-inhibitory concentration (IC50) was 740 nM. The IC50 in the series on MCF-7 is 2250 nM.
`CN1CCN(c2ccc(CN/C=C3\C(=O)NC(=O)c4ccc(I)cc43)cc2O)CC1` [Example 521, (4Z)-4-({[3-Hydroxy-4-(4-methylpiperazin-1-yl)benzyl]amino}methylene)-6-iodoisoquinoline-1,3(2H,4H)-dione] showed a melting point of 180 to 181 °C. Further, at cyclin D1/cdk 4 enzyme, the 50% inhibitory concentration (IC50) amounted to 20 nM. In addition, the IC50 at cyclin E/CDK2 enzyme stood at 560 nM. Further, at cyclin B/CDK1 enzyme, the half-inhibitory concentration (IC50) was 2600 nM. The half-inhibitory concentration (IC50) in the series with BT474 was found to be 7550 nM. Moreover, the IC50 in the series with HCT-116 is 2570 nM. Moreover, the 50% inhibitory concentration (IC50) in the series with LoVo was 5440 nM. The IC50 in the series on MCF-7 was found to be 2600 nM.
`COC[C@@H]1CCCN1c1ccc(CN/C=C2\C(=O)NC(=O)c3ccc(I)cc32)cc1O` [Example 523, (4Z)-4-[({3-Hydroxy-4-[(2S)-2-(methoxymethyl)pyrrolidin-1-yl]benzyl}amino)methylene]-6-iodoisoquinoline-1,3(2H,4H)-dione] came in with a melting point of 120 to 121 °C. For the same compound, the 50% inhibitory concentration (IC50) on cyclin D1/cdk 4 enzyme amounted to 200 nM. Besides, the half-inhibitory concentration (IC50) on cyclin E/CDK2 enzyme stood at 31100 nM. In addition, the IC50 at cyclin B/CDK1 enzyme was above 50000 nM. The half-inhibitory concentration (IC50) in the series with BT474 came to 5700 nM. Besides, in the series on HCT-116, the IC50 came to 6400 nM. Further, the IC50 in the series with LoVo worked out at 6200 nM. Moreover, the IC50 in the series on MCF-7 was 7300 nM.
